Experiment [1] concerns cardiac muscle mitochondria. In words: Glutathione content of cardiac muscle mitochondria after coronary ischemia-reperfusion. Type of experiment: in vivo. The following applies: dog; for effect on reduction of mitochondrial glutathione during reperfusion / Glutathione content of cardiac muscle mitochondria, GSH + GSSG, normal area / Glutathione content of cardiac muscle mitochondria, GSH, normal area / Glutathione content of cardiac muscle mitochondria, GSSG, normal area / Glutathione content of cardiac muscle mitochondria, GSH + GSSG, ischemic or reperfused area / Glutathione content of cardiac muscle mitochondria, GSH, ischemic or reperfused area / Glutathione content of cardiac muscle mitochondria, GSSG, ischemic or reperfused area: 10 mg/kg i.v. just before reperfusion; for Glutathione content of cardiac muscle mitochondria, GSH + GSSG, normal area / Glutathione content of cardiac muscle mitochondria, GSH, normal area / Glutathione content of cardiac muscle mitochondria, GSSG, normal area / Glutathione content of cardiac muscle mitochondria, GSH + GSSG, ischemic or reperfused area / Glutathione content of cardiac muscle mitochondria, GSH, ischemic or reperfused area / Glutathione content of cardiac muscle mitochondria, GSSG, ischemic or reperfused area: 2 h ischemia / 1 h reperfusion. How it is done:
After anesthetizing 52 adult mongrel dogs of either sex weighing ca. 10 kg by intraperitoneal administration of 50 mg/kg of sodium pentobarbital, breathing tubes were immediately intubated endotracheally and artificial ventilation was continued using a Harvard ventilator. Electrocardiogram electrodes were attached, and monitoring and recording were continued throughout the experiment. Following insertion of cannulas in the right femoral vein and right femoral artery, the cannulas were used for continuous intravenous drip of physiological saline to replenish water or administration of the test preparation, and monitoring of arterial blood pressure, respectively. After performing left thoracotomy in the fourth or fifth intercostal space, the pericardium was torn to expose the heart. Ischemia was induced by ligating the left anterior descending coronary artery immediately distal to the first diagonal branch, while reperfusion was performed by subsequently removing that ligation.
The animals were divided into four groups. Group 1 (n=9) was subjected to ischemia for 2 hours, group 2 (n=17) was subjected to ischemia for 2 hours followed by reperfusion for 1 hour, group 3 (n=10) was subjected to ischemia for 2 hours followed by reperfusion for 1 hour plus intravenous injection of 10 mg/kg of γ-GCE just before reperfusion, and group 4 (n=16) was subjected to 2 hours of ischemia followed by 1 hour of reperfusion plus intravenous injection of 10 mg/kg of reduced glutathione (GSH, control drug) just before reperfusion.
Evaluation of ischemia-reperfusion injury was performed, following completion of ischemia-reperfusion, by measuring (1) glutathione content of mitochondria, and (2) mitochondrial function, and so on, at the ischemic or reperfused area and the normal area of the heart. Mitochondria was obtained by removing the heart immediately after the end of ischemia or reperfusion, washing with cold physiological saline, promptly cutting out the ischemic or reperfused area and the normal area, and immediately performing preparation from the respective area according to the method described by Hatefi, et al. in Arch. Biochem. Biophys., Vol. 94, pp. 148-155, 1961.
The glutathione content of the mitochondria was measured by applying the method described by Tietze in Anal. Biochem., Vol. 27, pp. 502-522, 1969 to the supernatant obtained by immediately adding 1/10 vol of 27.5% (w/v) sulfosalicylic acid dihydrate aqueous solution to the prepared mitochondria suspension followed by protein denaturation and centrifugation. Evaluation of mitochondrial function was performed according to the method described by Sugiyama, et al. in Am. Heart J., Vol. 100, pp. 829-837, 1980, by polarographically measuring respiratory ability using an oxygen electrode and determining the rate of oxygen consumption is state III (St. III O2) and the respiratory control index (RCI).

In experiment [2] the test system is liver ischemia-reperfusion model using rats. In words: Glutathione concentration in liver tissue during liver ischemia-reperfusion. Type of experiment: in vivo. The note with it: rat, 50 mg/kg i.v. How it is done:
Male Wister rats weighing 250-300 g were fasted with free access to water 24 hours before the experiment. Seventy-two rats were divided into three groups of 24 animals each, i.e., the control group, the GSH administration group and the γ-GCE-administration group. Each rat was anesthetized by intraperitoneal administration of 40 mg/0.8 ml/kg of sodium pentobarbital, and the femoral vein was cannulated. In the GSH group and the γ-GCE group, 50 mg/kg of GSH or γ-GCE respectively were administered intravenously. Physiological saline was then infused for volume replacement in each group, as a continuous intravenous infusion at a rate of 0.8 ml/hr with an injection pump throughout the experiment. Thirty minutes after starting injection of physiological saline, the abdomon was opened by a midline incision and the liver hilus was exposed. According to the method described by Hasselgren, et al. in J. Surg. Res., Vol. 34, pp. 409-414, 1984, all vessels to the left and median lobes of the liver, more specifically, hepatic artery, portal vein and the bile duct, were clamped to produce an ischemic state for 2 hours. Since blood vessels to the remaining parts of the liver were not occluded by this method, poral stasis could be avoided which was of special relevance for circulation stability in rats. Thereafter, occlusion of all vessels was released by removing the clamp to allow reperfusion for 1 hour. The abdominal walls were closed during ischemia and reperfusion.
Using 18 rats in each group, the livers of 6 animals from each group were removed before ischemia, after 2 hours of ischemia, and after 1 hour of reperfusion, respectively. A portion of the liver from each animal was rapidly frozen in liquid nitrogen and used for measurement of glutathione,adenine nucleotides and lipid peroxide. From the remaining portion of the liver, mitochondria was immediately extracted according to the method described by Hogeboom and Schneider in the J. Biol. Chem., Vol. 172, p. 619, 1948. In other experiments, immediately after starting reperfusion, blood from the hepatic vein was collected using 6 rats from each group. These blood samples were then used to measure leaked adenine nucleotides. In addition, after 1 hour of said reperfusion, blood samples were also drawn, which were then used to measure the activity of the leaked liver cell enzymes.
Evaluation of ischemia-reperfusion injury was performed by measuring liver tissue (1) mitochondrial function, (2) glutathione concentration, (3) adenine nucleotides concentration, and (4) lipid peroxide concentration, as well as liver tissue derived (5) adenine nucleotides concentration in the hepatic vein immediately after starting reperfusion, and (6) liver cell enzyme activities in the blood after 1 hour of reperfusion. More specifically, the mitochondrial function in (1) was measured according to the method described by Chance, et al. in Adv. Enzymol., Vol. 17, p. 65, 1956. In addition, the quantitative determination of glutathione in (2) was performed using the same method as Experiment 1 on supernatant obtained by adding 10 vol/g of tissue weight of 2.5% (w/v) sulfosalicylic acid dihydrate aqueous solution to the liver tissue followed by homogenization and centrifugation. In addition, the quantitative determination of adenine nucleotides in (3) was performed by neutralizing the perchloric acid extract of the liver tissue with potassium hydroxide followed by removal of the precipitate and applying to an ion exchange HPLC column according to the method described by Sugino, et al. in J. Chromatogr., Vol. 361, pp. 427-431, 1986. In addition, the measurement of lipid peroxide in (4) was performed according to the thiobarbiturate method described by Ohkawa, et al. in Anal. Biochem., Vol. 95, p. 351, 1979. […]

Each structure is given as a SMILES string.

`CCOC(=O)[C@H](CS)NC(=O)CC[C@H](N)C(=O)O` [γ-GCE, γ-L-glutamyl-L-cysteine ethyl ester]: in experiment [1], the “effect on reduction of mitochondrial glutathione during reperfusion” value is on record as “significantly suppress further reduction of glutathione during the reperfusion”; the “Glutathione content of cardiac muscle mitochondria, GSH + GSSG, normal area” value is given as 4.06 ± 0.52; the “Glutathione content of cardiac muscle mitochondria, GSH, normal area” value stood at 3.68 ± 0.54; the “Glutathione content of cardiac muscle mitochondria, GSSG, normal area” value worked out at 0.38 ± 0.09. Also, in experiment [1], the “Glutathione content of cardiac muscle mitochondria, GSH + GSSG, ischemic or reperfused area” value amounted to 3.57 ± 0.46; the “Glutathione content of cardiac muscle mitochondria, GSH, ischemic or reperfused area” value is listed as 3.12 ± 0.40; the “Glutathione content of cardiac muscle mitochondria, GSSG, ischemic or reperfused area” value amounted to 0.45 ± 0.15. Further, in experiment [1] (10 mg/kg just before reperfusion), the “mitochondrial glutathione levels (GSH, GSH+GSSG) of reperfused area relative to normal area after reperfusion” value is reported as 85-88%. For the same compound, in experiment [2], the “decrease of liver glutathione concentration throughout the experiment” value is given as “no significant decrease was observed throughout the experiment”; the “Liver tissue glutathione, GSH + GSSG, after 1 hour reperfusion” value is listed as 5.50 ± 0.26 μmol/g of liver wet weight; the “Liver tissue glutathione, GSH, after 1 hour reperfusion” value is on record as 4.97 ± 0.25 μmol/g of liver wet weight; the “Liver tissue glutathione, GSSG, after 1 hour reperfusion” value is given as 0.54 ± 0.09 μmol/g of liver wet weight. Further, in experiment [2], the “Liver tissue glutathione, GSH + GSSG, after 2 hours ischemia” value was 5.87 ± 0.43 μmol/g of liver wet weight; the “Liver tissue glutathione, GSH, after 2 hours ischemia” value is 5.48 ± 0.42 μmol/g of liver wet weight; the “Liver tissue glutathione, GSSG, after 2 hours ischemia” value is given as 0.39 ± 0.01 μmol/g of liver wet weight; the “Liver tissue glutathione, GSH + GSSG, before ischemia” value was 6.04 ± 0.35 μmol/g of liver wet weight. In experiment [2], the “Liver tissue glutathione, GSH, before ischemia” value was 5.65 ± 0.30 μmol/g of liver wet weight and the “Liver tissue glutathione, GSSG, before ischemia” value is listed as 0.39 ± 0.07 μmol/g of liver wet weight. For the same compound, the “liver glutathione concentration compared with control group or GSH administration group” value in experiment [2] (throughout the experiment) is given as “significantly higher”.

For the compound `N[C@@H](CCC(=O)N[C@@H](CS)C(=O)NCC(=O)O)C(=O)O` [GSH, reduced glutathione, reference compound], in experiment [1], the “effect on reduction of mitochondrial glutathione during reperfusion” value is reported as “no such effects were observed”; the “Glutathione content of cardiac muscle mitochondria, GSH + GSSG, normal area” value is 3.94 ± 0.33; the “Glutathione content of cardiac muscle mitochondria, GSH, normal area” value was 3.67 ± 0.37; the “Glutathione content of cardiac muscle mitochondria, GSSG, normal area” value was 0.27 ± 0.08. Besides, in experiment [1], the “Glutathione content of cardiac muscle mitochondria, GSH + GSSG, ischemic or reperfused area” value was 2.44 ± 0.57; the “Glutathione content of cardiac muscle mitochondria, GSH, ischemic or reperfused area” value is recorded as 2.17 ± 0.52; the “Glutathione content of cardiac muscle mitochondria, GSSG, ischemic or reperfused area” value came to 0.27 ± 0.09. Moreover, in experiment [2], the “liver glutathione concentration after reperfusion relative to the level prior to ischemia” value was about 70%; the “Liver tissue glutathione, GSH + GSSG, after 1 hour reperfusion” value was 3.77 ± 0.64 μmol/g of liver wet weight; the “Liver tissue glutathione, GSH, after 1 hour reperfusion” value is given as 3.40 ± 0.60 μmol/g of liver wet weight; the “Liver tissue glutathione, GSSG, after 1 hour reperfusion” value is given as 0.37 ± 0.05 μmol/g of liver wet weight. For the same compound, in experiment [2], the “Liver tissue glutathione, GSH + GSSG, after 2 hours ischemia” value is 4.40 ± 0.68 μmol/g of liver wet weight; the “Liver tissue glutathione, GSH, after 2 hours ischemia” value is recorded as 4.35 ± 0.65 μmol/g of liver wet weight; the “Liver tissue glutathione, GSSG, after 2 hours ischemia” value is recorded as 0.35 ± 0.04 μmol/g of liver wet weight; the “Liver tissue glutathione, GSH + GSSG, before ischemia” value is on record as 5.29 ± 0.38 μmol/g of liver wet weight. In experiment [2], the “Liver tissue glutathione, GSH, before ischemia” value is on record as 4.91 ± 0.35 μmol/g of liver wet weight and the “Liver tissue glutathione, GSSG, before ischemia” value is on record as 0.38 ± 0.06 μmol/g of liver wet weight.

For the origin of these results see US6127342A, “Method for preventing or treating a lung disease caused by active oxygen and free radical injury” (Teijin Limited, priority 1991, dated 2000).
